From patent publication US8044213B2, “Thiazolyl-benzimidazoles” (Hoffmann-La Roche Inc., priority 2008, dated 2011)

Key:
PLK1 = target: T1, PLK1 (Homo sapiens, UniProt P53350); assay: Biochemical Characterization Assay B (peptide substrate, LABCHIP EZ Reader II); conditions: PLK1, peptide RRRAGALMDASFEEQ-CONH2, % conversion on LABCHIP EZ Reader II
T1 construct: Full-length, active GST-Plk1 was purified from Sf9 insect cells; GST (N); made in house; host or cells: Sf9 insect cells
Procedure: Compounds were serially diluted to 6400, 2133, 711, 237, 79, 26, 8.78, 2.93, 0.98 and 0.33 μM in 100% DMSO. Diluted compound was further diluted 20 fold with Kinase Assay Buffer (KAB). Peptide RRRAGALMDASFEEQ-CONH2 (MW 2090) was diluted to 1.2 μM with KAB and ATP was added to 400 μM. PLK1 stock, prepared as described above, was diluted to 3 μg protein/mL with KAB right before it was added to MATRIX 384-Well Polypropylene Black Plates to start the reaction. 20 μL of KAB diluted compounds (or 5% DMSO in KAB for Total and Blank), 20 μL of KAB diluted peptide with ATP and 40 μL of KAB diluted PLK1 solution (KAB without PLK 1 for Blanks) were transferred to each well of the polypropylene plates. The reaction mixtures were incubated at room temperature for 40 minutes. Reactions were stopped by addition of 10 uL Reaction Stopping Buffer (RSB) to each well. Plates were then read on LABCHIP EZ Reader II from Caliper Life Science.
(§1) The IC50 values for each compound were generated using an Excel template. The % conversion readings of Total and Blank were used as 0% and 100% inhibition. The percent inhibition values of reactions in the presence of compounds were calculated, and plotted against compound concentrations. All data were fitted into a Dose Response One Site model (4 parameter logistic model) as the following: (A+4B−A)/(1+((x/C)^13)))), with A and B as the bottom and top of the curve (highest and lowest inhibition), respectively, and C as IC50 and D as Hill Coefficient of the compound.

GST-Plk1 = target: T2, GST-Plk1 (Homo sapiens, UniProt P53350); assay: Biochemical Characterization Assay A (HTRF, phosphorylation of GST-p53); conditions: full-length GST-Plk1, GST-p53 substrate, HTRF signal
T2 construct: Full-length, active GST-Plk1 was purified from Sf9 insect cells; made in house; host or cells: Sf9 insect cells
T2 sequence (P53350 whole entry): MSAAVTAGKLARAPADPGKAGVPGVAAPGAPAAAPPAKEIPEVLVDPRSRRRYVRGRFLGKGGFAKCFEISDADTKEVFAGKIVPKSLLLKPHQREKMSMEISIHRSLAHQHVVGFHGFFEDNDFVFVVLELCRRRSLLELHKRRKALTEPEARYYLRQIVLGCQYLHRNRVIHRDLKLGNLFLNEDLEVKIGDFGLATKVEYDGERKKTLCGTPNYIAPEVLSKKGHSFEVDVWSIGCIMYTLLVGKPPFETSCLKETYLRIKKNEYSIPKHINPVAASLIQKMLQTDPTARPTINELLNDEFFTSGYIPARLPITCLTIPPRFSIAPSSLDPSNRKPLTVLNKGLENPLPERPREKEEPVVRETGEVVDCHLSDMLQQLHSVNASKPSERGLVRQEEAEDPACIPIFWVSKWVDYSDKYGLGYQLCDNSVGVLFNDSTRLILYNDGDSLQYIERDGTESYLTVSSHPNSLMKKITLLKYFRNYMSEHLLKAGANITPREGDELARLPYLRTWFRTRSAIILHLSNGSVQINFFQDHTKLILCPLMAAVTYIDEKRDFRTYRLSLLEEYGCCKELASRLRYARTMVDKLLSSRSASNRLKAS
Procedure: Full-length, active GST-Plk1 was purified from Sf9 insect cells, and full-length GST-p53 was purified in E. coli. Anti-phospho p53 antibody was purchased from Cell Signaling Technology. Europium-conjugated anti-rabbit antibody was purchased from PerkinElmer Life and Analytical Sciences. APC-conjugated anti-GST antibody was purchased from Prozyme.
To two microliters of compound (0.6 nM-4 mM) in DMSO or plain DMSO for control wells, 38 microliters of 20 mM HEPES pH 7, 50 mM NaCl, 10 mM MgCl2, 0.5 mM TCEP, 0.1 mM sodium orthovanadate, 0.1 mg/ml BSA, and 0.05% Triton X-100 (Kinase Assay Buffer) were added. Eight microliters of the compound solution were added to a 384-well black microtiter plate, followed by six microliters of GST-p53 (17 ug/ml) and ATP (333 uM) in Kinase Assay Buffer. Six microliters of GST-Plk1 (3 ug/ml) in Kinase Assay Buffer were then added and the solution incubated at 37° C. for 35 minutes. Six microliters of solution containing 43 mM EDTA to stop the reaction and a 1:600 dilution of anti-phospho-p53 antibody in 20 mM HEPES pH 7, 50 mM NaCl, and 0.5 mg/ml BSA (Antibody Binding Buffer) were added and the solution incubated at 37° C. for 30 minutes. Six microliters of solution containing 9 nM europium-conjugated anti-rabbit antibody and 120 nM APC-conjugated anti-GST antibody in Antibody Binding Buffer were then added and the mixture incubated at room temperature for 1.5 hours. The HTRF signal was read on the Envision reader (PerkinElmer Life and Analytical Sciences).
as §1

T1 sequence (P53350 whole entry): as above

## COc1cc2ncn(-c3nc(-c4cccc(Cl)c4)c(C(N)=O)s3)c2cc1OCCCN1CCN(C)CC1 [Example 42, 4-(3-Chloro-phenyl)-2-{5-methoxy-6-[3-(4-methyl-piperazin-1-yl)-propoxy]-benzoimidazol-1-yl}-thiazole-5-carboxylic acid amide]
PLK1
  IC50: 60 nM
GST-Plk1
  IC50: 19 nM
